The target of assay [1] is T1, SOS1 catalytic domain (residues 564-1049) (Homo sapiens, UniProt Q07889).
T1 construct: SOS1 catalytic domain (residues 564-1049) immobilized on a sensor chip
T1 sequence (Q07889 564-1049): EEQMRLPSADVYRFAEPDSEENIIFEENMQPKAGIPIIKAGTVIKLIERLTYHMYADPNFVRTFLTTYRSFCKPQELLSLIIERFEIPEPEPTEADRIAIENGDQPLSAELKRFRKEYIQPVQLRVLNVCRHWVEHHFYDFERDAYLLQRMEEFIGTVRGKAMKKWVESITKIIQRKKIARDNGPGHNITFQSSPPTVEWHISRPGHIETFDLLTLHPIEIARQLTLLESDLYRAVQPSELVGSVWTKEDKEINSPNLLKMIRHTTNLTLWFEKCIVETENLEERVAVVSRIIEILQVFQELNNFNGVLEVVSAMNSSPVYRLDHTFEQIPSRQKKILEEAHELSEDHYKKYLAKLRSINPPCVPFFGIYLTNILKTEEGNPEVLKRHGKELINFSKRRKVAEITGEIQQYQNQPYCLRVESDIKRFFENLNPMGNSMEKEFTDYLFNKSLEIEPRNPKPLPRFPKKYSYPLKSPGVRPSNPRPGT
Description: Binding affinity to SOS1 using Surface Plasmon Resonance (SPR). The conditions noted are these: avi-tagged SOS1 catalytic domain immobilized on sensor chip; read-out: SOS1 SPR Equilibrium Kd. The source says:
Potency Assay: Measurement of the Binding Affinity of Compounds of the Invention to SOS! using Surface Plasmon Resonance (SPR)
The purpose of the SPR assay was to measure the direct binding of compounds to SOS1 catalytic domain (residues 564-1049) immobilized on a sensor chip. Data was reported as equilibrium dissociation constant (Kd) values.
Using a GE Biacore 8K SPR instrument, avi-tagged SOS1 catalytic domain protein was immobilized to a level of approximately 6000 response units (RU) on a streptavidin-coated SPR sensor chip in assay buffer containing 0.01 M HEPES, 0.15 M NaCl and 0.05% v/v Surfactant P20. In assay buffer containing 2% DMSO, concentration series of test compounds were generated spanning 5 μM to 4.9 nM over ten 2-fold dilutions. For each test compound, a separate 0 μM sample was generated for use during subsequent double reference subtraction. Serially for each test compound, individual dilution samples were flowed over the immobilized SOS1 protein at a flow rate of 50 μL/minute to monitor the association with SOS1. Dissociation of bound test compound from the SOS1 protein was immediately monitored by flowing assay buffer over the sensor surface and monitoring the decrease in binding signal back to the baseline level seen in the absence of compound. This was repeated for all compound dilutions in each series. The binding level response for each test compound concentration was noted immediately prior to the end of the association phase, and a secondary plot generated showing binding response level versus test compound concentration generated for each compound dilution series.

The target in assay [2] is T2, SOS1 nucleotide exchange of KRAS (catalytic domain of SOS1, residues 564-1049; wild-type KRAS) (Homo sapiens, UniProt Q07889).
T2 construct: tagless catalytic domain of SOS1 (residues 564-1049)
T2 sequence (Q07889 564-1049): T1 sequence (Q07889 564-1049)
Description: Mode of Action Assay: Inhibition of SOS1 Nucleotide Exchange Activity (TR-FRET). The conditions noted are these: TR-FRET signal. It counts as biochemical. On the procedure:
The purpose of this assay was to characterize the inhibitory activity of compounds on SOS1 nucleotide exchange of KRAS. Data was reported as IC50 values based on the TR-FRET signal.
Note—the following protocol describes a procedure for monitoring the inhibition of SOS1 nucleotide exchange activity of wild-type KRAS in response to a compound of the invention. Other KRAS mutants and RAS isoforms maybe employed.
In assay buffer containing 20 mM HEPES, pH 7.5, 150 mM NaCl, 5 mM MgCl2, 0.05% Tween-20, 0.1% BSA, 1 mM DTT, concentration series of test compounds were generated spanning 100 μM to 1.7 nM over eleven 3-fold serial dilutions in a 384-well assay plate at a volume of 20 μL. The purified tagless catalytic domain of SOS1 (residues 564-1049) was first diluted in assay buffer at a concentration of 100 nM, and then 20 μL of the SOS1 containing solution was directly dispensed into compound plates. The SOS1/compound mixture was incubated at room temperature with constant mixing on an orbital shaker for 20 minutes to allow the reaction to reach equilibrium. A KRAS mixture was prepared by diluting 66.7 nM avi-tagged KRAS (residue 1-169), 3.33 nM Streptavidin-Tb and 333 nM EDA-GTP-DY-647P1 in assay buffer. This mixture was prepared immediately before addition to the SOS1/compound mixture to prevent intrinsic nucleotide exchange. Then 5 μL of the pre-incubated SOS1/compound mixture and 7.5 μL of the KRAS mixture were added sequentially in a 384-well low volume black round bottom plate and incubated at room temperature with constant shaking for 30 minutes. Time-resolved fluorescence was measured on a PerkinElmer Envision plate reader. DMSO and 10 μM of compound (i) were used as negative and positive controls, respectively.
Three replicates were performed for each compound. Data were normalized by the following: (Positive control—Sample signal)/(Positive control—negative control)*100. The data were fit using a four-parameter logistic fit.

pIC50, pKd: −log10 of the molar value.

The term pKd denotes the negative decadic logarithm of the Kd, by convention in mol/L. Take `C[C@@H](Nc1ncnc2cn(CC3CCOC3)cc12)c1cc(N)cc(C(F)(F)F)c1` (stereo partly drawn) [Example 32, N-[(1R)-1-[3-amino-5-(trifluoromethyl)phenyl]ethyl]-6-(tetrahydrofuran-3-ylmethyl)pyrrolo[3,4-d]pyrimidin-4-amine]: the pKd in assay [1] is ≥ 6.40.

A word on the pIC50: it is −log10 of the IC50, conventionally taken in molar units. Consider `Cc1nc(N[C@H](C)c2cc(N)cc(C(F)(F)F)c2)c2cc(CN3CCOCC3)cn2n1` [Example 34, N-[(1R)-1-[3-amino-5-(trifluoromethyl)phenyl]ethyl]-2-methyl-6-(morpholinomethyl)pyrrolo[2,1-f][1,2,4]triazin-4-amine], for which the pIC50 in assay [2] is < 6.00. In assay [1], the pKd was < 6.40.

For the compound `CC(=O)N1CCN(c2cc3c(N[C@H](C)c4cc(N)cc(C(F)(F)F)c4)ncnn3c2)CC1` [Example 43, 1-[4-[4-[[(1R)-1-[3-amino-5-(trifluoromethyl)phenyl]ethyl]amino]pyrrolo[2,1-f][1,2,4]triazin-6-yl]piperazin-1-yl]ethanone], the pIC50 in assay [2] is < 6.00. Moreover, the pKd in assay [1] was < 6.40.

As to `COc1cc2c(N[C@H](C)c3cc(N)cc(C(F)(F)F)c3)ncnn2c1` [Example 44, N-[(1R)-1-[3-amino-5-(trifluoromethyl)phenyl]ethyl]-6-methoxy-pyrrolo[2,1-f][1,2,4]triazin-4-amine], the pIC50 in assay [2] was < 6.00. Moreover, in assay [1], the pKd is < 6.40.

Regarding `CC(=O)N1CCN(c2cc3c(N[C@H](C)c4cccc(C(F)(F)F)c4)ncnn3c2)CC1` [Example 45, 1-[4-[4-[[(1R)-1-[3-(trifluoromethyl)phenyl]ethyl]amino]pyrrolo[2,1-f][1,2,4]triazin-6-yl]piperazin-1-yl]ethenone], the pIC50 in assay [2] is < 6.00. For the same compound, the pKd in assay [1] is ≥ 6.40.

`Cc1nc(N[C@H](C)c2cc(N)cc(C(F)(F)F)c2)c2cc(C3=CCNCC3)sc2n1` [Example 46, N-[(1R)-1-[3-amino-5-(trifluoromethyl)phenyl]ethyl]-2-methyl-6-(1,2,3,6-tetrahydropyridin-4-yl)thieno[2,3-d]pyrimidin-4-amine]: the pIC50 in assay [2] is < 6.00.

As for `C[C@@H](Nc1ccnc2cc(C3=CCNCC3)nn12)c1cc(N)cc(C(F)(F)F)c1` [Example 52, N-[(1R)-1-[3-amino-5-(trifluoromethyl)phenyl]ethyl]-2-(1,2,3,6-tetrahydropyridin-4-yl)pyrazolo[1,5-a]pyrimidin-7-amine], the pIC50 in assay [2] was < 6.00. Moreover, in assay [1], the pKd was ≥ 6.40.

For the compound `C[C@@H](Nc1cc(C(F)(F)F)cn2nc(C3=CCNCC3)nc12)c1cc(N)cc(C(F)(F)F)c1` [Example 54, N-[(1R)-1-[3-amino-5-(trifluoromethyl)phenyl]ethyl]-2-(1,2,3,6-tetrahydropyridin-4-yl)-6-(trifluoromethyl)-[1,2,4]triazolo[1,5-a]pyridin-8-amine], the pIC50 in assay [2] was < 6.00.

Regarding `C[C@@H](Nc1cccc2nc(C3=CCNCC3)nn12)c1cc(N)cc(C(F)(F)F)c1` [Example 55, N-[(1R)-1-[3-amino-5-(trifluoromethyl)phenyl]ethyl]-2-(1,2,3,6-tetrahydropyridin-4-yl)-[1,2,4]triazolo[1,5-a]pyridin-5-amine], in assay [2], the pIC50 was < 6.00.

Take `Cc1cn2nc(C(=O)N3CCOCC3)cc2c(N[C@H](C)c2cc(N)cc(C(F)(F)F)c2)n1` [Example 58., 60.]: in assay [2], the pIC50 is < 6.00. The pKd in assay [1] was < 6.40.

With `Cc1cn2nc(C(=O)N3CCN(C)CC3)cc2c(N[C@H](C)c2cc(N)cc(C(F)(F)F)c2)n1` [Example 59], the pIC50 in assay [2] is < 6.00. The pKd in assay [1] was ≥ 6.40.

As to `Cc1nc(N[C@H](C)c2cc(N)cc(C(F)(F)F)c2)c2cc(-c3ccnc(N4CCOCC4)c3)cn2n1` [Example 63, N-[(1R)-1-[3-amino-5-(trifluoromethyl)phenyl]ethyl]-2-methyl-6-[2-(morpholin-4-yl)pyridin-4-yl]pyrrolo[2,1-f][1,2,4]triazin-4-amine], the pIC50 in assay [2] is < 6.00. Moreover, the pKd in assay [1] was ≥ 6.40.

As to `COc1ncccc1-c1cc2c(N[C@H](C)c3cc(N)cc(C(F)(F)F)c3)nc(C)nn2c1` [Example 64, N-[(1R)-1-[3-amino-5-(trifluoromethyl)phenyl]ethyl]-6-(2-methoxypyridin-3-yl)-2-methylpyrrolo[2,1-f][1,2,4]triazin-4-amine], in assay [2], the pIC50 is < 6.00. The pKd in assay [1] was < 6.40.

With `C[C@@H](Nc1ncnc2c1cc(C1=CCNCC1)n2C)c1cc(N)cc(C(F)(F)F)c1` [Example 67], the pKd in assay [1] was ≥ 6.40.

Turning to `Cc1cn2nc(C(=O)N3CCNCC(F)(F)C3)cc2c(N[C@H](C)c2cc(N)cc(C(F)(F)F)c2)n1` [Example 77], in assay [2], the pIC50 was < 6.00.

Turning to `Cc1cn2nc(C(=O)N3CC(N4CCC4)C3)cc2c(N[C@H](C)c2cc(N)cc(C(F)(F)F)c2)n1` [Example 79], the pIC50 in assay [2] was < 6.00.

Consider `Cc1cn2nc(C(=O)N3CC4CC(C3)N4C)cc2c(N[C@H](C)c2cc(N)cc(C(F)(F)F)c2)n1` [Example 80], for which the pIC50 in assay [2] is < 6.00.

As for `C[C@@H](Nc1nc(Cl)cc2nc(C(=O)N3CCOCC3)cn12)c1cccc(C(F)(F)CO)c1` [Example 86], the pIC50 in assay [2] was > 6.00. Moreover, in assay [1], the pKd is ≥ 6.40.

Turning to `C[C@@H](Nc1nccc2nc(C(=O)N3CC4(CN(CCF)C4)C3)cn12)c1cccc(C(F)F)c1F` [Example 92], in assay [2], the pIC50 was > 6.00. Moreover, the pKd in assay [1] is ≥ 6.40.

Consider `C[C@@H](Nc1nccc2nc(C(=O)N3CC4(CN(CC(F)F)C4)C3)cn12)c1cccc(C(F)F)c1F` [Example 93], for which, in assay [2], the pIC50 was > 6.00. For the same compound, in assay [1], the pKd is ≥ 6.40.

For the origin of these results see patent publication US20230148450A9, “BICYCLIC HETEROARYL COMPOUNDS AND USES THEREOF” (Revolution Medicines, Inc., priority 2019, published 2023).
